Measurements: US20190262330A1, “Method of Treating Hepatocellular Carcinoma Using N-(4-(6,7-dimethoxyquinolin-4-yloxy)phenyl)-N′-(4-fluorophenyl)cyclopropane-1,1-dicarboxamide, (2S)-hydroxybutanedioate” (Exelixis, Inc., priority 2017, published 2019)

How the values were obtained:
[1] = target: TIE-2 (Homo sapiens, UniProt Q02763); test: In vitro biochemical and/or cellular kinase assays
[2] = test system: CYP3A4; test: Drug interaction with strong CYP3A4 inducer rifampin; assay type: in vivo, human; settings: rifampin 600 mg daily for 31 days, healthy subjects
[3] = target: CYP2D6 (Homo sapiens, UniProt P10635); test: In vitro CYP inhibition; assay type: in vitro ADME
[4] = target: FLT-3 (Homo sapiens, UniProt P36888); test: In vitro biochemical and/or cellular kinase assays
[5] = test system: CYP2C8; test: In vitro CYP induction; assay type: in vitro ADME
[6] = test system: female rats and offspring; test: Pre- and postnatal study in rats; settings: oral, gestation day 10 through postnatal day 20
[7] = target: VEGFR-3 (Homo sapiens, UniProt P35916); test: In vitro biochemical and/or cellular kinase assays
[8] = test system: murine models of hepatocellular carcinoma; settings: mouse, in vivo; cited from earlier work
[9] = Excretion of 14C-cabozantinib radioactivity in healthy subjects; assay type: in vivo, human; settings: 72 hour collection
Protocol: Approximately 81% of the total administered radioactivity was recovered within a 48-day collection period following a single 140 mg dose of an investigational ^14C-cabozantinib formulation in healthy subjects. Approximately 54% was recovered in feces and 27% in urine.

[10] = target: KIT (Homo sapiens, UniProt P10721); test: In vitro biochemical and/or cellular kinase assays
[11] = target: CYP2E1 (Homo sapiens, UniProt P05181); test: In vitro metabolic pathways; assay type: in vitro ADME
[12] = test system: previously treated advanced HCC; test: CELESTIAL secondary analysis: target lesion size, serum AFP, time to progression; assay type: in vivo, human
Protocol: Patients must have received prior sorafenib and were allowed up to 2 lines of prior systemic therapy for HCC. Change in the sum of target lesion diameters (SOD) from baseline was determined every 8 weeks by investigator. Best percentage change in SOD was defined as the maximum reduction in SOD at any postbaseline timepoint. Serum AFP levels were measured centrally at baseline and every 8 weeks on the same schedule as tumor assessments. TTP was defined as the time from randomization to radiological progression or clinical deterioration and was determined retrospectively.

[13] = test system: CYP2B6; test: In vitro CYP induction; assay type: in vitro ADME
[14] = target: MER (Homo sapiens, UniProt Q12866); test: In vitro biochemical and/or cellular kinase assays
[15] = target: TRKB (Homo sapiens, UniProt Q16620); test: In vitro biochemical and/or cellular kinase assays
[16] = target: CYP3A4 (Homo sapiens, UniProt P08684); test: In vitro CYP inhibition; assay type: in vitro ADME
[17] = Population pharmacokinetic analysis in specific populations; assay type: in vivo, human; settings: integrated population pharmacokinetic analysis
From the text: The pooled analysis included 391 patients with HCC of whom […] were categorized as having normal liver function, mild, and moderate hepatic impairment, respectively.

[18] = target: AXL (Homo sapiens, UniProt P30530); test: In vitro biochemical and/or cellular kinase assays
[19] = target: CYP2C19 (Homo sapiens, UniProt P33261); test: In vitro CYP inhibition; assay type: in vitro ADME
[20] = test system: patients with advanced hepatocellular carcinoma; test: Phase 3 CELESTIAL trial, safety; assay type: in vivo, human
Protocol: Treatment interruptions and dose reductions (to 40 mg and then to 20 mg) were utilized to manage adverse events. Patients received study treatment as long as they experienced clinical benefit as judged by the investigator or until they experienced unacceptable toxicity.
Secondary efficacy endpoints were progression-free survival, defined as the time from randomization to the earlier of radiographic progression or death due to any cause, and objective response rate. Tumor assessments were performed using computed tomography or magnetic resonance imaging at baseline and every 8 weeks after randomization until the later of 8 weeks after radiographic progression or treatment discontinuation. Tumor response and progression were assessed by the investigator using Response Evaluation Criteria In Solid Tumors (RECIST) version 1.1. Eisenhauer E A, Therasse P, Bogaerts J, et al. New response evaluation criteria in solid tumours: revised RECIST guideline (version 1.1). Eur J Cancer 2009; 45:228-47. Safety was continuously evaluated, and the severity of adverse events was assessed by the investigator using the National Cancer Institute Common Terminology Criteria for Adverse Events, version 4. Progression-free survival was tested by stratified log-rank test; significance level 0.04. Overall response rate was tested by 2-sided Fisher's exact test; significance level Of 0.01.
Efficacy was analyzed in all randomized patients by the intent-to-treat principle. Safety was analyzed in all patients who received at least one dose of study treatment. For time-to-event endpoints, hypothesis testing was done using the stratified log-rank test with the stratification factors used for randomization; median durations and associated 95% confidence intervals were estimated using the Kaplan-Meier method. Hazard ratios were estimated using Cox regression models. Hypothesis testing for objective response was done with the Cochran-Mantel-Haenszel method. All subgroup analyses of overall survival and progression-free survival were prespecified except for those based on extrahepatic spread of disease or macrovascular invasion as separate factors or sorafenib as the only prior therapy. For subgroup analyses, no adjustments were made for multiplicity, hazard ratios are unstratified, and confidence intervals are considered descriptive.
Patients on both arms who had disease progression could continue treatment at the discretion of the investigator [see Clinical Studies (14)].

[21] = target: RET (Homo sapiens, UniProt P07949); test: In vitro biochemical and/or cellular kinase assays

Chain of CYP2C19 (P33261 whole entry): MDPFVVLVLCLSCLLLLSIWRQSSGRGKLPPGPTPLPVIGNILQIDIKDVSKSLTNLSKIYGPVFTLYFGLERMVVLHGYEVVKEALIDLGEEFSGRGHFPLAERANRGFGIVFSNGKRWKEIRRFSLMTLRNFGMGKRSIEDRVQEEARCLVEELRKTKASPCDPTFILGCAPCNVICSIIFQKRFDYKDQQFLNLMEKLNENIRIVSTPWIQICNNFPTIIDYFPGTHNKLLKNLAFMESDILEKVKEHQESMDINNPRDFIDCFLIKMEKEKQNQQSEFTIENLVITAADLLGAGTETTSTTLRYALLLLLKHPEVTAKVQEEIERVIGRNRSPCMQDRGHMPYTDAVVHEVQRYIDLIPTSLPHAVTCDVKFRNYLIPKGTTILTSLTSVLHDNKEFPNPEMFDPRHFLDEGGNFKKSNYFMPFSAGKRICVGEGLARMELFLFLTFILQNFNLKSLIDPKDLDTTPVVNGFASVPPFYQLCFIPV
Chain of VEGFR-3 (P35916 25-1363): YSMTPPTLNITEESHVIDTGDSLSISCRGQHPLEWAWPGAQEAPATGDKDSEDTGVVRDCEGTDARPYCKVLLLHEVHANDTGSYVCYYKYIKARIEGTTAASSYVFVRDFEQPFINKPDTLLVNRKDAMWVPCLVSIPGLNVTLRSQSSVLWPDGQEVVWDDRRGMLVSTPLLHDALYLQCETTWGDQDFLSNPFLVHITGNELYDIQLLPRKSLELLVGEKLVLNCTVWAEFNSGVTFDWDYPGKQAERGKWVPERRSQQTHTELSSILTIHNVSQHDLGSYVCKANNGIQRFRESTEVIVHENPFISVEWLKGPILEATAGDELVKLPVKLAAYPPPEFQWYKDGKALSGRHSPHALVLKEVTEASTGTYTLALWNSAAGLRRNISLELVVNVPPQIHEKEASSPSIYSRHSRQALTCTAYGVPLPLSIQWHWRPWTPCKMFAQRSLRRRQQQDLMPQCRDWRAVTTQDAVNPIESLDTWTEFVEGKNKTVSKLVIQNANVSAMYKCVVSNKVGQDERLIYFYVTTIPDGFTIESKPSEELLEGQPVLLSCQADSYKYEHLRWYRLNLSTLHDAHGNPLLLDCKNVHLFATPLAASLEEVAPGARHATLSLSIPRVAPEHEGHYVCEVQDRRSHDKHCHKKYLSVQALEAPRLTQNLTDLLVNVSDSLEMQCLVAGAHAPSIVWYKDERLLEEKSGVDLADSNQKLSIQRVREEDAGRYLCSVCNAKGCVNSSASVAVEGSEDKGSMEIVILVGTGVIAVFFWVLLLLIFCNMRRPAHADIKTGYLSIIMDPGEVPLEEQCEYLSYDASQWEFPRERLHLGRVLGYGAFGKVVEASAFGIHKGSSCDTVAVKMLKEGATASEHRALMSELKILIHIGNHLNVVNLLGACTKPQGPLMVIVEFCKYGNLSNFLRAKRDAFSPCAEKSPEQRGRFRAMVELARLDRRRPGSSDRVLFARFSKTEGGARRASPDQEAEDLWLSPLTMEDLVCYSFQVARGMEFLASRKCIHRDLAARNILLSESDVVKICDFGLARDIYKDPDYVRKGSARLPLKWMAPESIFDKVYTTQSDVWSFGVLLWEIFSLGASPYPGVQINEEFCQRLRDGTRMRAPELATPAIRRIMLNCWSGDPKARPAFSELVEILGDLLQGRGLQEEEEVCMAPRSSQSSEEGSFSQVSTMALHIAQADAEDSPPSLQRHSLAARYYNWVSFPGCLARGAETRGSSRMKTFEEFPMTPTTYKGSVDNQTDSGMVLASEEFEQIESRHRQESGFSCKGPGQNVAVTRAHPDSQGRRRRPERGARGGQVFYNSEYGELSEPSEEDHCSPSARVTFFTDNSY
Chain of CYP2E1 (P05181 whole entry): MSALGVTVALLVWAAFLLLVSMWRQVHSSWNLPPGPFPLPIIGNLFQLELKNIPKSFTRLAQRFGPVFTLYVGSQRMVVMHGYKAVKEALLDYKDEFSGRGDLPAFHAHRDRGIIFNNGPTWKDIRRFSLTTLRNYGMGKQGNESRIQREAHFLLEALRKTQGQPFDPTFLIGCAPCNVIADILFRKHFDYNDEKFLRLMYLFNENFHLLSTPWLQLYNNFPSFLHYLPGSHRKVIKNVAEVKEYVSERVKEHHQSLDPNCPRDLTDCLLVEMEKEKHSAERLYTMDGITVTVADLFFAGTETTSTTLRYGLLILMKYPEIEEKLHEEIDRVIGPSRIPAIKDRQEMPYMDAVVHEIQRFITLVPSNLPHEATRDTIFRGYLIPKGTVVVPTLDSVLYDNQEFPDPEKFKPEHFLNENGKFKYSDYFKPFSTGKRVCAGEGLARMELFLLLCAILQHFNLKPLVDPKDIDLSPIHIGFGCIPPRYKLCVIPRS
Chain of AXL (P30530 26-894): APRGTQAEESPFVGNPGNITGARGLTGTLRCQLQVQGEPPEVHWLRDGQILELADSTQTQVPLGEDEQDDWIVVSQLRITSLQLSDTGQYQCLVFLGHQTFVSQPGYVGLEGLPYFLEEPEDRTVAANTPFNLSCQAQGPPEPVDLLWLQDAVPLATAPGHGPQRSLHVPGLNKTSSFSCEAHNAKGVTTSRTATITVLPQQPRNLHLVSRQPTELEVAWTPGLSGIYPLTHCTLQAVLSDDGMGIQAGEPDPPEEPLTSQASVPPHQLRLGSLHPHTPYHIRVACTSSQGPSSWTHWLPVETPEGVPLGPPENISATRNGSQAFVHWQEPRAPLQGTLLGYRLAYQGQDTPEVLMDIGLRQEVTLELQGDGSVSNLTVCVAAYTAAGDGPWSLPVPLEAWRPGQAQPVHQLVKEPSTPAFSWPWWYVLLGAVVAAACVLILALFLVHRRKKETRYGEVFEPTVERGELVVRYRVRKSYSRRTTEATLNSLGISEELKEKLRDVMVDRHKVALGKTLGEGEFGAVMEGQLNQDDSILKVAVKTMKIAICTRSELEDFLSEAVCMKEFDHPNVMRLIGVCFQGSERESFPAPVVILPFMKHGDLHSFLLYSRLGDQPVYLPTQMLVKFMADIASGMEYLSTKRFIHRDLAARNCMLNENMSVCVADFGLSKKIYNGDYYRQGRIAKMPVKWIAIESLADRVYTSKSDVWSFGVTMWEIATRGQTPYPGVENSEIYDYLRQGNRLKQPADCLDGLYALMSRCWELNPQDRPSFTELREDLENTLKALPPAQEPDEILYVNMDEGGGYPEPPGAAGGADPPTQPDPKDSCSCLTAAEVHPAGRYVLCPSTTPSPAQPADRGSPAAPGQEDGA
Chain of TRKB (Q16620 32-822): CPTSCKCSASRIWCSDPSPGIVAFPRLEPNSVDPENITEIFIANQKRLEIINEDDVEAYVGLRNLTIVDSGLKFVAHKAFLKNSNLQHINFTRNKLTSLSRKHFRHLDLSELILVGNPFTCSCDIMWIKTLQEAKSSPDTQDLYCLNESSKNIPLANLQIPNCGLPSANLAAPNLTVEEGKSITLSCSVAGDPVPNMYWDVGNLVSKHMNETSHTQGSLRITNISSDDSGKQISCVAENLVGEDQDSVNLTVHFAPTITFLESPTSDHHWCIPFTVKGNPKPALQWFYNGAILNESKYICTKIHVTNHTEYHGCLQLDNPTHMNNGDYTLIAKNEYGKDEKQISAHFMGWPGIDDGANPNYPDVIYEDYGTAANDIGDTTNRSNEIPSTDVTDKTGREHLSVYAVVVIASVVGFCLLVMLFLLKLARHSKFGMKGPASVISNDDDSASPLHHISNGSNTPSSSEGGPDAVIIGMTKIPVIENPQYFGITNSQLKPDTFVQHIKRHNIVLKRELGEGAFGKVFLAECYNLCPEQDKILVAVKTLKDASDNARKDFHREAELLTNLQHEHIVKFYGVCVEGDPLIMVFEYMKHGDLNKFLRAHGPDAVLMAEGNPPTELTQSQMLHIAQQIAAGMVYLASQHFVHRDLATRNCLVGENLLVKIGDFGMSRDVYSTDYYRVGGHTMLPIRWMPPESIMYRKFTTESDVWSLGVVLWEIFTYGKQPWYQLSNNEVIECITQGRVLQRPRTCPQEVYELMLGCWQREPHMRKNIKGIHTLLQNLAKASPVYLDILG
Chain of CYP2D6 (P10635 whole entry): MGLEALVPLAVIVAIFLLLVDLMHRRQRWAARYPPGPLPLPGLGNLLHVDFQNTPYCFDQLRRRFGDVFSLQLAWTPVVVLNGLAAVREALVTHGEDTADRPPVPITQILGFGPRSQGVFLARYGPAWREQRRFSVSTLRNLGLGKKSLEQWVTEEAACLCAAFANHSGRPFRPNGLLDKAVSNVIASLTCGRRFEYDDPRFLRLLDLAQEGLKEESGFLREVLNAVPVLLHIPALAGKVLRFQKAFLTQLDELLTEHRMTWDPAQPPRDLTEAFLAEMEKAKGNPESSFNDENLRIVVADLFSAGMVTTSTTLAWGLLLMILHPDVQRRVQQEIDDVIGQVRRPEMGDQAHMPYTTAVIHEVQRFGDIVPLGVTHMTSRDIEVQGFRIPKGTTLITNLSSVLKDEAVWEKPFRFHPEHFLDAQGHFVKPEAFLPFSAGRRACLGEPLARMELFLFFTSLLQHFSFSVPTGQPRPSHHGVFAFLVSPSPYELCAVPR
Chain of CYP3A4 (Homo sapiens, UniProt P08684) (P08684 whole entry): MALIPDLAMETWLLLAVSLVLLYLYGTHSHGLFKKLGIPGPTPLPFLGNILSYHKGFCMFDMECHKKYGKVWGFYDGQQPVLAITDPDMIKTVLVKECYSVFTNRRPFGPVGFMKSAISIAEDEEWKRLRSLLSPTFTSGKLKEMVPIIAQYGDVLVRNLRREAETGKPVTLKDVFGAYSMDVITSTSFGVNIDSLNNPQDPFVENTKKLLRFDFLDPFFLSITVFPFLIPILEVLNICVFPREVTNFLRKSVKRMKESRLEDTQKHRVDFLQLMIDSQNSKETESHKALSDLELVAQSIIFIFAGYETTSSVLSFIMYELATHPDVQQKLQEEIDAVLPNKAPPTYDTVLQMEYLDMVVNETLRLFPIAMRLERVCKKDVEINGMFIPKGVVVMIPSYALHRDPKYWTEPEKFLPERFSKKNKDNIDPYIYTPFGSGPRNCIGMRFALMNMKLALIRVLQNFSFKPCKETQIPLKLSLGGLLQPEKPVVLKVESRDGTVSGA

With `COc1cc2nccc(Oc3ccc(NC(=O)C4(C(=O)Nc5ccc(F)cc5)CC4)cc3)c2cc1OC` [cabozantinib] the “Tyrosine kinase activity of TIE-2” value [1] was “inhibits”, the “Decrease of single-dose plasma exposure (AUC0-inf)” value [2] was 77% and the “Inhibition of CYP2D6” value [3] was “does not inhibit”. The “Tyrosine kinase activity of FLT-3” value [4] was “inhibits”, the “Induction of CYP2C8” value [5] was “does not induce” and the “Doses without adverse maternal toxicity or effect on offspring survival, growth or postnatal development” value [6] was “up to 0.3 mg/kg/day”. The “Tyrosine kinase activity of VEGFR-3” value [7] was “inhibits”, the Tumor growth [8] was “inhibits tumor growth” and the “Unchanged cabozantinib as share of total radioactivity in feces” value [9] was 43%. For the same compound, the “Tyrosine kinase activity of KIT” value [10] was “inhibits”, the “Effect of inhibition of CYP2E1 on metabolite formation” value [11] was “no effect” and the “Patients with any postbaseline reduction in SOD as best response” value ([12]; ITT) was 47%. The “Patients with ≥30% reduction in SOD” value ([12]; ITT) was 8%, the “Patients with ≥50% postbaseline decrease in serum AFP” value ([12]; ITT) was 23% and the “Patients with ≥30% reduction in postbaseline SOD” value ([12]; baseline AFP <400 ng/mL) was 9%. For the same compound, the “Patients with ≥30% reduction in postbaseline SOD” value ([12]; baseline AFP ≥400 ng/mL) was 7%, the “Median TTP” value ([12]; in vivo) was 5.4 months and the “Induction of CYP2B6” value [13] was “does not induce”. For the same compound, the “Tyrosine kinase activity of MER” value [14] was “inhibits”, the “Tyrosine kinase activity of TRKB” value [15] was “inhibits” and the “Effect on CYP3A4 pathway” value [16] was “affected by cabozantinib in vitro”. For the same compound, the “Differences in mean plasma exposure among normal liver function, mild and moderate hepatic impairment” value [17] was “no clinically significant differences”, the “Tyrosine kinase activity of AXL” value [18] was “inhibits” and the “Effect on CYP2C19 pathway” value [19] was “affected by cabozantinib in vitro”. The “Grade 5 adverse events considered related to study treatment” value ([20]; CELESTIAL) was 6 patients, the “Grade 5 adverse events within 30 days of last dose” value ([20]; CELESTIAL) was 12% and the “Adverse events of any grade regardless of causality” value ([20]; human, in vivo) was 99%. For the same compound, the “Adverse events of grade 3 or 4” value ([20]; human, in vivo) was 68%, the Any dose reduction ([20]; human, in vivo) was 62% and the “Diarrhea, Grade 3/4” value ([20]; human, in vivo) was 10%. For the same compound, the “Discontinuation due to treatment-related adverse event” value ([20]; human, in vivo) was 16%, the “Dose reduction due to diarrhea” value ([20]; human, in vivo) was 10% and the “Dose reduction due to fatigue” value ([20]; human, in vivo) was 7%. For the same compound, the “Dose reduction due to hypertension” value ([20]; human, in vivo) was 7%, the “Dose reduction due to increased aspartate aminotransferase” value ([20]; human, in vivo) was 6% and the “Dose reduction due to palmar-plantar erythrodysesthesia syndrome” value ([20]; human, in vivo) was 22%. The “Fatigue, Grade 3/4” value ([20]; human, in vivo) was 10%, the “Hypertension, Grade 3/4” value ([20]; human, in vivo) was 16% and the “Increased aspartate aminotransferase, grade 3 or 4 adverse event” value ([20]; human, in vivo) was 12%. The “Median time to first dose reduction” value ([20]; human, in vivo) was 38 days, the “Palmar-plantar erythrodysesthesia, Grade 3/4” value ([20]; human, in vivo) was 17% and the Serious adverse events ([20]; human, in vivo) was 50%. For the same compound, the “Tyrosine kinase activity of RET” value [21] was “inhibits”.
